Results as given in patent publication US7687434B2, “Method of improving yield and vigor of plants” (Monsanto Technology, LLC, priority 2000, dated 2010).
Values after ≈ are worked out from the molar mass of the structure shown.

Legend:
[1] = test system: Phytopthera infestans; format: cell-based; conditions: Late blight
[2] = test system: Rhizoctonia solani 15-10; assay: In vitro inhibition of mycelial growth on silthiopham-amended agar; format: cell-based; as to ACTIVITY RATING (0-3): key: 0 = no; 1 = weak; 2 = good; 3 = excellent
[3] = test system: Fusarium oxysporum var. pisi race1 33-11; assay: as above; format: cell-based; as to ACTIVITY RATING (0-3): key: 0 = no; 1 = weak; 2 = good; 3 = excellent
[4] = test system: Septoria nodorum; assay: as above; format: cell-based; conditions: Glum blotch; also: key: 0 = no; 1 = weak; 2 = good; 3 = excellent
[5] = test system: Gaeumannomyces graminis var. tritici; assay: as above; format: cell-based; as to ACTIVITY RATING (0-3): key: 0 = no; 1 = weak; 2 = good; 3 = excellent
[6] = test system: soybean plants (CSR2121 variety); assay: Soybean seed treatment field trial, upper Midwestern United States; format: in vivo
[7] = test system: Colletotrichum trifolii; assay: In vitro inhibition of mycelial growth on silthiopham-amended agar; format: cell-based; conditions: Root rot in alfalfa; also: key: 0 = no; 1 = weak; 2 = good; 3 = excellent
[8] = test system: Fusarium oxysporum var. pisi race1 33-9; assay: as above; format: cell-based; as to ACTIVITY RATING (0-3): key: 0 = no; 1 = weak; 2 = good; 3 = excellent
[9] = test system: Fusarium solani, var. pisi 34-1; assay: as above; format: cell-based; as to ACTIVITY RATING (0-3): key: 0 = no; 1 = weak; 2 = good; 3 = excellent
[10] = test system: Fusarium solani, var. coeruleum 4-5; assay: as above; format: cell-based; as to ACTIVITY RATING (0-3): key: 0 = no; 1 = weak; 2 = good; 3 = excellent
[11] = test system: Fusarium oxysporum var. pisi race1 33-10; assay: as above; format: cell-based; as to ACTIVITY RATING (0-3): key: 0 = no; 1 = weak; 2 = good; 3 = excellent
[12] = test system: soybean plants; assay: Soybean seed treatment field trial on five farms in South Africa; format: in vivo
[13] = test system: microorganisms that are known to be soybean pathogens; assay: In vitro inhibition of mycelial growth, summary for soybean pathogens; format: cell-based; conditions: summary of Table 6
[14] = test system: Fusarium solani, var. coeruleum 4-2; assay: In vitro inhibition of mycelial growth on silthiopham-amended agar; format: cell-based; as to ACTIVITY RATING (0-3): key: 0 = no; 1 = weak; 2 = good; 3 = excellent
[15] = test system: Fusarium solani, var. pisi 34-2; assay: as above; format: cell-based; as to ACTIVITY RATING (0-3): key: 0 = no; 1 = weak; 2 = good; 3 = excellent
[16] = test system: Rhizoctonia solani 15-9; assay: as above; format: cell-based; as to ACTIVITY RATING (0-3): key: 0 = no; 1 = weak; 2 = good; 3 = excellent
[17] = seed treatment prior to planting, at plant maturity
[18] = Fusarium oxysporum, 96 h, Czapek-Dox agar, 4 days at 18° C., log-log fit
[19] = Fusarium solani, 96 h, Czapek-Dox agar, 4 days at 18° C., log-log fit

C=CCNC(=O)c1c([Si](C)(C)C)sc(C)c1C [Silthiopham, 4,5-dimethyl-N-(2-propenyl)-2-(trimethylsilyl)-3-thiophenecarboxamide]
ACTIVITY RATING (0-3) [1]: 0
EC50 ([2]; Rhizoctonia solani, 1510, 96 h, Czapek-Dox agar, 4 days at 18° C., log-log fit): 132 mg/L (≈ 494 µM)
ACTIVITY RATING (0-3) ([2]; Sheath blight): 0
EC50 ([3]; Fusarium oxysporum, 96 h): 36100 mg/L (≈ 135000 µM)
ACTIVITY RATING (0-3) ([3]; Root rot): 0
ACTIVITY RATING (0-3) [4]: 0
EC50 ([5]; Gaeumannomyces graminis, 96 h, Czapek-Dox agar, 4 days at 18° C., log-log fit): 0.001 mg/L (≈ 0.00374 µM)
ACTIVITY RATING (0-3) ([5]; Take-all disease in cereals): 3
activity against Gaerumannomyces graminis var. tritici (in words) ([5]; summary of Table 6): excellent activity
improvement in yield compared with untreated control beans ([6]; FIG. 3, soybean yield): no improvement over the untreated control
seed weight increase (beans larger) than untreated control beans ([6]; FIG. 4): performed comparably with untreated beans
plant height increase (plants taller) than untreated control beans ([6]; FIG. 5): performed comparably with untreated beans
Canopy (% coverage) ([6]; percent of canopy closure, 100% is total coverage): 78%
Plant Height [6, 17]: 22.8 inches
Seed Weight [6, 17]: 11.0 gm/100 seeds
Grain Yield ([6]; seed treatment prior to planting, determined at plant maturity, adjusted to 13% moisture): 36.4 bu/ac
Vigor (1 worst-9 best) ([6]; standard 1-9 scale, 1 worst, 9 best and most vigorous): 6
ACTIVITY RATING (0-3) [7]: 0
EC50 [8, 18]: 109 mg/L (≈ 407 µM)
ACTIVITY RATING (0-3) ([8]; Root rot): 0
EC50 [9, 19]: 126 mg/L (≈ 470 µM)
ACTIVITY RATING (0-3) ([9]; Root rot): 0
EC50 [10, 19]: 127 mg/L (≈ 476 µM)
ACTIVITY RATING (0-3) ([10]; Root rot): 0
EC50 [11, 18]: 112 mg/L (≈ 421 µM)
ACTIVITY RATING (0-3) ([11]; Root rot): 0
SOYBEAN YIELD ([12]; Avg. of farms 3-5 (dryland)): 1949 kg/ha
SOYBEAN YIELD ([12]; Farm 4, dryland, cultivar SNK444, sand clay 12%): 1844 kg/ha
SOYBEAN YIELD ([12]; Farm 5, dryland, cultivar SNK400, clay 40%): 2054 kg/ha
grain yield, statistical comparison ([12]; combination vs standard Mollyflo+Bradyrhizobium, silthiopham alone vs non-treated control): did not significantly differ from the non-treated control
visual appearance of vegetative growth ([12]; compared to the standard Mollyflo+inoculant treatment): appeared visually greener and more vigorous
number of nodules on plant roots ([12]; farms 4 and 5, FIGS. 6 and 7, plants in 400-mm rows): did not substantially affect the number of nodules
plant weight ([12]; farms 4 and 5, FIGS. 8 and 9, 2 meters per plot): no effect on plant weight
visual appearance of nodules ([12]; where silthiopham was included in the treatment): Nodules visually appeared healthier
activity against soybean pathogens (in words) [13]: little or no activity
EC50 [14, 19]: 113 mg/L (≈ 423 µM)
ACTIVITY RATING (0-3) ([14]; Root rot): 0
EC50 [15, 19]: 106 mg/L (≈ 398 µM)
ACTIVITY RATING (0-3) ([15]; Root rot): 0
EC50 ([16]; Rhizoctonia solani, 159, 96 h, Czapek-Dox agar, 4 days at 18° C., log-log fit): 162 mg/L (≈ 607 µM)
ACTIVITY RATING (0-3) ([16]; Sheath blight): 0
